PMC9186412, “Rational Framework for the Design of Trp- and Arg-Rich Peptide Antibiotics Against Multidrug-Resistant Bacteria” (Frontiers in Microbiology, 2022)
Where a SMILES comes first, the peptide text is derived from it. Bridges are numbered along the chain shown (N, C = ends). [ ]: non-standard residue; d: D form. The star is where a group is joined. X1 = CC[C@H](C)CCCCC(=O)*; Dab = NCC[C@H](N)C(=O)O

Legend:
S. aureus = experiment: microbe, parasite or virus in culture; assay type: cell-based
Procedure: (§1) Bacterial clinical isolates, used for initial screening and in previous studies ([Deslouches et al., 2013]; [Lin et al., 2018]), were anonymously provided by the clinical microbiology laboratory of the University of Pittsburgh medical Center. The panel used for secondary screening was from [CDC (2013)] (Supplementary Table 3), with resistance profiles data. Bacteria are stored in lock-secured –80°C freezer and typically retrieved by obtaining single colonies on agar plates prior for subsequent liquid broth cultures. Suspensions of test bacteria were prepared from log phase of growth by diluting overnight cultures at 1:100 with fresh cation-adjusted MHB (MHB2, Millipore Sigma, United States) and incubating for additional 3–4 h. Bacteria were spun at 3,000 × g for 10 min and the pellet resuspended in test condition media (Millipore Sigma, United States) to determine bacterial turbidity using a Den-1B densitometer (Grant Instruments, United States) at 0.5 McFarland (unit of bacterial density) corresponding to […].
(§2) To examine antibacterial activity, we used minor modifications of a standard growth inhibition assay endorsed by the Clinical and Laboratory Standards Institute (CLSI), as previously described ([Deslouches et al., 2013]). Bacteria were incubated with each of the indicated peptides in MHB2. The bacterial cells were kept in an incubator for 18 h at 37°C, which is linked to a robotic system that feeds a plate reader every hour with one of 8 × 96-well plates. This set-up allows the collection of growth kinetic data at A 570 (absorbance at 570 nm) to examine growth inhibition in real time (BioTek Instruments, United States). […] The assays are typically repeated a second time. If the MIC is different, a third experimental trial is performed to confirm the MIC. To assess bactericidal properties of the peptide, the assay was modified by using 15% fetal bovine serum (FBS, for a more physiologically relevant test condition) mixed with 25% MHB2 and 60% PBS. Bacterial cells (colony forming unit/mL or CFU/mL) were enumerated after incubating treated bacteria for 3 h and plating serially diluted samples on broth agar medium at 37°C overnight. Minimum bactericidal concentration (MBC) was determined as the peptide concentration at which complete bacterial killing was observed. […] Data were analyzed using GraphPad Prism software.

E. Faecium = experiment: microbe, parasite or virus in culture; assay type: cell-based, Enterococcus Facium
Procedure: as §1, §2

[1] = tested on: P. aeruginosa strain PA239; experiment: Bactericidal assay (MBC) in FBS-containing medium FMP; assay type: cell-based; conditions: within 3h of incubation
Procedure: Bacteria were incubated with each of the indicated peptides in MHB2. […] To assess bactericidal properties of the peptide, the assay was modified by using 15% fetal bovine serum (FBS, for a more physiologically relevant test condition) mixed with 25% MHB2 and 60% PBS. […] Data were analyzed using GraphPad Prism software.

Row | Structure (SMILES) | MIC (S. aureus; strain SA461, CDC clinical strain, confirmed by a second or third experimental trial) | MIC (S. aureus; strain SA462, CDC clinical strain, confirmed by a second or third experimental trial) | MIC (S. aureus; strain SA463, CDC clinical strain, confirmed by a second or third experimental trial) | MIC (S. aureus; strain SA561, CDC clinical strain, confirmed by a second or third experimental trial) | MIC (S. aureus; strain SA12212, UPMC, MHB2, 18 h, 37°C) | MIC (S. aureus; strain SA18710, UPMC, MHB2, 18 h, 37°C) | MIC (S. aureus; strain SA49775, MHB2, 18 h, 37°C) | MIC (S. aureus; strain SA-US300, MHB2, 18 h, 37°C) | MIC (E. Faecium; strain EF500, CDC clinical strain, confirmed by a second or third experimental trial) | MIC (E. Faecium; strain EF671, CDC clinical strain, confirmed by a second or third experimental trial) | MIC (E. Faecium; strain EF672, CDC clinical strain, confirmed by a second or third experimental trial) | MIC (E. Faecium; strain EF673, CDC clinical strain, confirmed by a second or third experimental trial) | MIC (E. Faecium; strain EF23614, UPMC, MHB2, 18 h, 37°C) | MIC (E. Faecium; strain EF26215, UPMC, MHB2, 18 h, 37°C) | MIC (E. Faecium; strain EF26692, UPMC, MHB2, 18 h, 37°C) | bacterial killing [1]
1 | CC[C@H](C)CCCCC(=O)N[C@@H](CCN)C(=O)N[C@H](C(=O)N[C@@H](CCN)C(=O)N[C@H]1CCNC(=O)[C@H]([C@@H](C)O)NC(=O)[C@H](CCN)NC(=O)[C@H](CCN)NC(=O)[C@H](CC(C)C)NC(=O)[C@@H](CC(C)C)NC(=O)[C@H](CCN)NC1=O)[C@@H](C)O [Colistin, reference compound] (X1-[Dab]T[Dab][Dab][Dab][dL]L[Dab][Dab]T; lactam 4-C (inferred); N-terminus assumed) | >16 µM | >16 µM | >16 µM | >16 µM | >16 µM | >16 µM | >16 µM | >16 µM | >16 µM | >16 µM | >16 µM | >16 µM | >16 µM | >16 µM | >16 µM | 
2 | NC[C@H]1O[C@H](O[C@H]2[C@H](O)[C@@H](O[C@H]3O[C@H](CO)[C@@H](O)[C@H](N)[C@H]3O)[C@H](N)C[C@@H]2N)[C@H](N)C[C@@H]1O [Tobramycin, reference compound] |  |  |  |  |  |  |  |  |  |  |  |  |  |  |  | did not display any substantial bacterial killing
